For orientation: IC50 means the concentration that inhibits the measured activity by half.

The test system of the assay is IFNα-Induced STAT Phosphorylation in Human Whole Blood. The experiment in a line: IFNα-Induced STAT Phosphorylation in Human Whole Blood. The format is cell-based. As to conditions: 1 h incubation with compound, 1000 U/mL recombinant human IFNα A/D for 15 min, pSTAT5 (pY694) median fluorescence intensity in CD3 positive population, read-out: hWB IC50.
Take `[2H]C([2H])([2H])NC(=O)c1nnc(Nc2cnc(C(C)(C)O)cn2)cc1Nc1cccc(-c2ncc(F)cn2)c1OC` [Example 101, 4-((3-(5-fluoropyrimidin-2-yl)-2-methoxyphenyl)amino)-6-((5-(2-hydroxypropan-2-yl)pyrazin-2-yl)amino)-N-(methyl-d3)pyridazine-3-carboxamide]: the half-inhibitory concentration (IC50) was 93 nM.

`[2H]C([2H])([2H])NC(=O)c1nnc(Nc2cc(C(C)(C)O)ccn2)cc1Nc1cccc(-c2ncc(F)cn2)c1OC` [Example 102, 4-((3-(5-fluoropyrimidin-2-yl)-2-methoxyphenyl)amino)-6-((4-(2-hydroxypropan-2-yl)pyridin-2-yl)amino)-N-(methyl-d3)pyridazine-3-carboxamide]: the 50% inhibitory concentration (IC50) was found to be 212 nM.

With `[2H]C([2H])([2H])NC(=O)c1nnc(Nc2ccc(C(C)(C)O)cn2)cc1Nc1cccc(-c2ncc(F)cn2)c1OC` [Example 103, 4-((3-(5-fluoropyrimidin-2-yl)-2-methoxyphenyl)amino)-6-((5-(2-hydroxypropan-2-yl)pyridin-2-yl)amino)-N-(methyl-d3)pyridazine-3-carboxamide], the 50% inhibitory concentration (IC50) worked out at 79 nM.

Take `[2H]C([2H])([2H])NC(=O)c1nnc(Nc2ccc(C(C)(C)O)cn2)cc1Nc1cc(F)cc(-c2ncccn2)c1OC` [Example 104, 4-((5-fluoro-2-methoxy-3-(pyrimidin-2-yl)phenyl)amino)-6-((5-(2-hydroxypropan-2-yl)pyridin-2-yl)amino)-N-(methyl-d3)pyridazine-3-carboxamide]: the IC50 was determined as 41 nM.

For the molecule `[2H]C([2H])([2H])NC(=O)c1nnc(Nc2cc(C(C)(C)O)ccn2)cc1Nc1cc(F)cc(-c2ncccn2)c1OC` [Example 105, 4-((5-fluoro-2-methoxy-3-(pyrimidin-2-yl)phenyl)amino)-6-((4-(2-hydroxypropan-2-yl)pyridin-2-yl)amino)-N-(methyl-d3)pyridazine-3-carboxamide], the IC50 is 172 nM.

As to `[2H]C([2H])([2H])NC(=O)c1nnc(Nc2cc(=O)n(C)cn2)cc1Nc1cccc(-c2ncc(F)cn2)c1OC` [Example 106, 4-((3-(5-fluoropyrimidin-2-yl)-2-methoxyphenyl)amino)-N-(methyl-d3)-6-((1-methyl-6-oxo-1,6-dihydropyrimidin-4-yl)amino)pyridazine-3-carboxamide], the half-maximal inhibitory concentration (IC50) was 151 nM.

Turning to `[2H]C([2H])([2H])NC(=O)c1nnc(Nc2cc3n(n2)CCN(C)C3=O)cc1Nc1cccc(-c2ncc(F)cn2)c1OC` [Example 107, 4-((3-(5-Fluoropyrimidin-2-yl)-2-methoxyphenyl)amino)-N-(methyl-d3)-6-((5-methyl-4-oxo-4,5,6,7-tetrahydropyrazolo[1,5-a]pyrazin-2-yl)amino)pyridazine-3-carboxamide], the IC50 stood at 81 nM.

As to `[2H]C([2H])([2H])NC(=O)c1nnc(Nc2cc3n(n2)CCN(C)C3=O)cc1Nc1cccc(-c2ncccn2)c1OC` [Example 108, 4-((2-Methoxy-3-(pyrimidin-2-yl)phenyl)amino)-N-(methyl-d3)-6-((5-methyl-4-oxo-4,5,6,7-tetrahydropyrazolo[1,5-a]pyrazin-2-yl)amino)pyridazine-3-carboxamide], the concentration for half-maximal inhibition (IC50) turned out to be 137 nM.

Consider `[2H]C([2H])([2H])NC(=O)c1nnc(Nc2cc3n(n2)CCN(C2CC2)C3=O)cc1Nc1cccc(-c2ncc(F)cn2)c1OC` [Example 109, 6-((5-cyclopropyl-4-oxo-4,5,6,7-tetrahydropyrazolo[1,5-a]pyrazin-2-yl)amino)-4-((3-(5-fluoropyrimidin-2-yl)-2-methoxyphenyl)amino)-N-(methyl-d3)pyridazine-3-carboxamide], for which the IC50 was 262 nM.

As for `[2H]C([2H])([2H])NC(=O)c1nnc(NC(=O)C2CC2)cc1Nc1cccc(-c2ccc(S(C)(=O)=O)cn2)c1OC` [Example 110], the IC50 is 480 nM.

As for `[2H]C([2H])([2H])NC(=O)c1nnc(NC(=O)C2CC2)cc1Nc1cccc(-c2ncc(S(C)(=O)=O)cn2)c1OC` [Example 111], the IC50 came out at 216 nM.

Consider `[2H]C([2H])([2H])NC(=O)c1nnc(NC(=O)C2CC2)cc1Nc1cccc(-c2ncc(N3CCCC3=O)cn2)c1OC` [Example 112], for which the concentration for half-maximal inhibition (IC50) turned out to be 27 nM.

The values are drawn from US12479831B2, “Substituted N(-methyl-D3)pyridazine-3-carboxamide or M-(methyl-D3)-nicotinamide compounds as IL-12, IL-23 and/or IFNα modulators” (BRISTOL-MYERS SQUIBB COMPANY, priority 2020, dated 2025).
